Legend:
HeLa cells = assay: Cells viability assay (CellTiter-Glo), HeLa; assay type: cell-based, human; conditions: increasing concentrations, 48 h
Protocol: Cells viability assay—_HeLa cells were plated in an opaque-walled 96 well plate (50,000 cells per well) and treated with increasing concentrations of the tested SPI compounds (e.g., SPI-21 or SPI-18) for 48 hours. After equilibrating the plate and its contents at room temperature for 30 minutes, […] (1:1) of CellTiter-Glo® Reagent (G7571, Promega) was added to each well and shook for 2 minutes to induce cell lysis. Following 10 minutes incubation at room temperature, the luminescent signal was detected using the Cytation 5 instrument.
Spt5 was reported to be essential for cell growth and survival in mammalian cells (Komori et al., 2009).

[1] = tested on: pro-inflammatory genes A20, CCL20, IL6, IL8, CXCL2, JUNB and IEX1; assay: mRNA levels of pro-inflammatory genes under TNFα-induced conditions, HeLa, RT-qPCR; assay type: cell-based, human; conditions: HeLa cells, SPI 1 hour then TNFα 1 hour
Protocol: Cell culture—HEK293T, HeLa, MCF7, Jurkat and mouse embryonic fibroblasts (MEFs) cells were grown and maintained in Dulbecco's modified Eagle's medium supplemented with 10% fetal calf serum (Gibco) and 1% penicillin-streptomycin. To avoid NF-κB activity, HeLa cells were kept from reaching confluence and re-plated no more than 10 times following initial thawing. To induce NF-κB activity, cells were treated with […] recombinant human TNF-α (Peprotech) for the indicated times. STHdh Q111 and STHdh Q7 striatal cell lines (Coriell Institute for Medical Research) were grown in Dulbecco's modified Eagle's medium supplemented with 10% fetal calf serum (Gibco), 1% penicillin-streptomycin and 0.4 mg/ml G418 at 33° C. The cells were re-plated no more than 5-6 times, as recommended.
RNA analysis—Total RNA was extracted using Tri-reagent (Bio-Lab Chemicals) and Direct-Zol™ RNA MiniPrep kit (Zymo Research). Following, cDNA was synthesized from […] of total RNA using a High-Capacity cDNA Reverse Transcription Kit (ABI, Thermo Fisher Scientific). cDNA samples were analyzed by quantitative PCR (qPCR) in a ViiA 7 Real-Time PCR System using Fast qPCRBIO SYBR Green Mix (PCR Biosystems).
In the next step, the effect of the identified SPIs on expression of the selected genes following NF-κB activation was analyzed. Specifically, Hela cells were pre-incubated with DMSO or SPI (50 μM or less) for 1 hour followed by treatment with TNFα for an additional 1 hour.

[2] = biological target: T1, endogenous Spt4/Spt5-Pol II complex (Homo sapiens, UniProt O00267+P24928); assay: Co-immunoprecipitation of endogenous Spt4/Spt5-Pol II complex, HeLa lysates; assay type: binding; conditions: 50 μM
T1 construct: endogenous in cells; host or cells: HeLa cell lysate, immunoprecipitated with anti-Spt5 antibody
Protocol: Co-immunoprecipitation (CO-IP)—HeLa cells were detached from a 10 cm dish with ice-cold PBS and a cell scraper, centrifuged for 5 minutes at 2,000 rpm and re-suspended in 200 μl lysis buffer (20 mM Tris-HCl pH 8, 400 mM NaCl, 2 mM EDTA, 0.5% NP-40, 10% glycerol) to which a protease inhibitor cocktail (1:100) and PMSF (200 μM) were freshly added. The lysates were rotated for 10 minutes at 4° C.; and centrifuged for 15 minutes at 13,000 rpm. Following, the supernatants were diluted with lysis buffer without NaCl to reach a final concentration of 100 mM NaCl. Cell lysates were then incubated at 4° C. overnight with an anti-Spt5 antibody (Tadashi Wada et al., 1998 Genes and Development. PMID: 9450929) or rabbit IgG (SC-2025, Santa Cruz Biotechnology), followed by 2 hours incubation at 4° C. with Protein A/G Sepharose beads (GE Healthcare). Following, the samples were washed 3 times and incubated for 2 hours at 4° C. with DMSO (vehicle control) or the indicated compound. The immune-precipitated proteins were detected by SDS-PAGE followed by western blot using an anti-Spt5, anti-Pol II (ab817, Abcam) or anti-Spt4 (Kim D K. et al, Genes to cells 2003 PMID: 12653964).
In the next step, co-immunoprecipitation in the presence of SPI-21 or SPI-18 was performed to test their effect of endogenous Spt4/Spt5-Pol II complex. […]

Spt5 activities = assay: Combined effects on the various Spt5 activities (summary of Examples 1-4); assay type: cell-based

Structure (SMILES) | cellular viability (HeLa cells) | Down-regulating transcription of pro-inflammatory genes under TNFα induced conditions (i.e. inhibiting transcription elongation of pro-inflammatory genes induced by Spt5) [1] | effect on Spt5-Pol II binding (co-immunoprecipitation) [2] | classification by effect on the various Spt5 activities, in words (Spt5 activities)
Nc1ccccc1SC(CC(=O)c1cccs1)c1cccs1 (centres unmarked) [SPI-18] | dramatically diminish cellular viability in a dose-dependent manner | + (+ >50%) | did not disrupt Spt5-Pol II binding | inhibited mainly the positive activity of Spt5 with little or no effect on proximal promoter pausing
COc1ccc(C=CC(=O)c2cc(O)ccc2O)cc1 [SPI-21] | dramatically diminish cellular viability in a dose-dependent manner | +++ (+++ represent >80% inhibition) | did not disrupt Spt5-Pol II binding | affect all the tested Spt5 activities

— patent US12661353B2, “SPT5 inhibitors and uses thereof” (Yeda Research and Development Co. Ltd., priority 2020, dated 2026)
